Experiments:
PI3K α = molecular target: T1, PI3K α (Homo sapiens, UniProt P42336); experiment: PI3-Kinase Promega ADP-Glo Max assay; assay type: biochemical; details: 20 nM kinase, 3 mM ATP, 500 uM diC8-PtdInsP
T1 construct: purchased Millipore
Procedure, shortened: (§1)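 Human class I PI3K (20 nM α or δ, 40 nM β) pre-incubated 15 min with compound in HEPES pH 7.4 buffer with MgCl2, then reacted 2 h at room temperature with 3 mM ATP and 500 uM diC8-PtdInsP. ADP measured by ADP-Glo Max luminescence; % inhibition fitted to 4-parameter logistic for IC50.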

PI3K β = molecular target: T2, PI3K β (Homo sapiens, UniProt P42338); experiment: PI3-Kinase Promega ADP-Glo Max assay; assay type: biochemical; details: 40 nM kinase, 3 mM ATP, 500 uM diC8-PtdInsP
T2 construct: purchased Millipore
Procedure, shortened: as §1

PI3K δ = molecular target: T3, PI3K δ (Homo sapiens, UniProt O00329); experiment: PI3-Kinase Promega ADP-Glo Max assay; assay type: biochemical; details: 20 nM kinase, 3 mM ATP, 500 uM diC8-PtdInsP
T3 construct: purchased Millipore
T3 sequence (O00329 whole entry): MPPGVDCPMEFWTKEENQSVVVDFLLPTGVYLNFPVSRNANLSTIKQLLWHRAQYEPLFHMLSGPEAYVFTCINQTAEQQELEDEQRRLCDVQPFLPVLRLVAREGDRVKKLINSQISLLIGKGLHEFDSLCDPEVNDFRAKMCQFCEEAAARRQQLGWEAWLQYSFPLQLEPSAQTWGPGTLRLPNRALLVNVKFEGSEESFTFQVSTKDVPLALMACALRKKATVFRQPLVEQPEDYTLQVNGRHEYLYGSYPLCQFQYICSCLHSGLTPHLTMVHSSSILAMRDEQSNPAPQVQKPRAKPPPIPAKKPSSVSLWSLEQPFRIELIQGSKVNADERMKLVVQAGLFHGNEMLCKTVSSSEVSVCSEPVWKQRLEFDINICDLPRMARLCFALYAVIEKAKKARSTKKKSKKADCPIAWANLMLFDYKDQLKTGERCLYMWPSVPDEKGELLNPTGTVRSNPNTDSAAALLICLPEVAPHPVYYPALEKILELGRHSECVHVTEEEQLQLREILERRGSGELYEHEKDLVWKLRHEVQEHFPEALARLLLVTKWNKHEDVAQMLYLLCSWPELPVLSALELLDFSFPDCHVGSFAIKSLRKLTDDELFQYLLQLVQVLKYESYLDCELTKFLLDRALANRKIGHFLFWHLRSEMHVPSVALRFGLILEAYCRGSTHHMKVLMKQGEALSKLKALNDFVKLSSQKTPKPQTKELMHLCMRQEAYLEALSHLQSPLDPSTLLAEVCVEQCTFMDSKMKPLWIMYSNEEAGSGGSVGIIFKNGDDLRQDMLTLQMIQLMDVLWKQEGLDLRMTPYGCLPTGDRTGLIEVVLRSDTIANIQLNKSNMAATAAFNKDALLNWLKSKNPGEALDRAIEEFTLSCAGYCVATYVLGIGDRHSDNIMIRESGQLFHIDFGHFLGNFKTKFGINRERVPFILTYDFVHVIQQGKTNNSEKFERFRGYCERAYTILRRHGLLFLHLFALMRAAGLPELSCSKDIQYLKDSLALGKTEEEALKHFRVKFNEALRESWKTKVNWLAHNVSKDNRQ
T3 sequence (P27986 whole entry partner): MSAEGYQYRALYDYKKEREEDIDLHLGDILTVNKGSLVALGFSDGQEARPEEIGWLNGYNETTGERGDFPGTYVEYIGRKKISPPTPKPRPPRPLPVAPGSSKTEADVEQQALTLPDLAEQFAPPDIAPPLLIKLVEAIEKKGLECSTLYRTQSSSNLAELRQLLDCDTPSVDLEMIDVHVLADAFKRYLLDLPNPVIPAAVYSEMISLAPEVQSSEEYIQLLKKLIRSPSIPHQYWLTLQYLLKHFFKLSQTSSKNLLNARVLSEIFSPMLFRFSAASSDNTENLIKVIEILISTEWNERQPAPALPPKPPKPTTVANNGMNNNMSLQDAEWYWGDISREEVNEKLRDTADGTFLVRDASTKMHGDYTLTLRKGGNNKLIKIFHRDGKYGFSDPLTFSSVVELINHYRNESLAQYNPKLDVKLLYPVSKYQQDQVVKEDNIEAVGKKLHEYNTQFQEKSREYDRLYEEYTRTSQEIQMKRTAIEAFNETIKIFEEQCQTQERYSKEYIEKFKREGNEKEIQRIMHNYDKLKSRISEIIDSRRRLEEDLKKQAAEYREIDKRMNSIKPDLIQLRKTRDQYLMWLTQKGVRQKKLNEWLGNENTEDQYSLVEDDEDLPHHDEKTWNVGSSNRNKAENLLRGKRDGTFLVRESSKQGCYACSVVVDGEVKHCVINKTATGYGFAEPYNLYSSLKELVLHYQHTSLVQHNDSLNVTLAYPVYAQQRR
Procedure, shortened: as §1

PI3K γ = molecular target: T4, PI3K γ (Homo sapiens, UniProt P48736); experiment: PI3-Kinase Promega ADP-Glo Max assay; assay type: biochemical; details: 40 nM kinase, 3 mM ATP, 500 uM diC8-PtdInsP
T4 construct: purchased Millipore
T4 sequence (P48736 whole entry): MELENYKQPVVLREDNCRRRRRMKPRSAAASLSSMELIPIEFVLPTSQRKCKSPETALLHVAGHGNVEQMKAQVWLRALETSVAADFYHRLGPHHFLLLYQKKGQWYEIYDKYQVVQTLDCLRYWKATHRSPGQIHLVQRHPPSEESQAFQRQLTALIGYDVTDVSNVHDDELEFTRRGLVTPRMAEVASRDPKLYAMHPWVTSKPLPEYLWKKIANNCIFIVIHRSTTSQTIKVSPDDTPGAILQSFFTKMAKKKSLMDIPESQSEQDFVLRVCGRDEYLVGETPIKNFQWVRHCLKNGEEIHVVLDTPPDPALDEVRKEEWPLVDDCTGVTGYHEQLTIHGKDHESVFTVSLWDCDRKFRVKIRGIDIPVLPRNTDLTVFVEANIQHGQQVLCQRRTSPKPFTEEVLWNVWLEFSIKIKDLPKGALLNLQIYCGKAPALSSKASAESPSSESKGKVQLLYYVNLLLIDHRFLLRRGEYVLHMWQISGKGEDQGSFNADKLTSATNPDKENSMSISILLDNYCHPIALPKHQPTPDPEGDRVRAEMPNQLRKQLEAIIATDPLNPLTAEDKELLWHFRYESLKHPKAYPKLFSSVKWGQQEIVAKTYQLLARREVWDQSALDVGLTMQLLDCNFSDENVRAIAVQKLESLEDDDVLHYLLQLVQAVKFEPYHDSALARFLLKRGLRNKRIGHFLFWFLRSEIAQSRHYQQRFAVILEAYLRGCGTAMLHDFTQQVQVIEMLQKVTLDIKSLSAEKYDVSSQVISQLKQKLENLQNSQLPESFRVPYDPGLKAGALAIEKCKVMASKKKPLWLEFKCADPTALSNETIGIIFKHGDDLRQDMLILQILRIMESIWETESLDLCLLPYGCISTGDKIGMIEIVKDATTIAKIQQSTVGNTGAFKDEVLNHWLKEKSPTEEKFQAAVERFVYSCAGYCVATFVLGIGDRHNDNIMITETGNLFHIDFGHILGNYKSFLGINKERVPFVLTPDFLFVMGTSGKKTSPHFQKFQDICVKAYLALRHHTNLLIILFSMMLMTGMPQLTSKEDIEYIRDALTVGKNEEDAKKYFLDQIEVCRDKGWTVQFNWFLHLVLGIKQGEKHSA
Procedure, shortened: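 Human class I PI3K reactions ran 2 hours at room temperature, followed by stop solution (40 min) and detection mix (1 hour) before luminescence reading.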

Raw264.7 p110 γ = molecular target: T5, Raw264.7 p110 γ (Mus musculus, UniProt Q9JHG7); experiment: Raw264.7 p110 γ cellular assay (phospho-AKT); assay type: cell-based; details: serum-starved RAW264.7 cells stimulated with C5a
T5 construct: reduction of phospho-AKT in stimulated RAW 264.7 cells; endogenous in cells; host or cells: RAW264.7 macrophages
Excerpt: (b) PI3K-γ Selective Assay
Briefly, serum-starved PAW264.7 cells are stimulated with a known GPCR agonist C5a. […] Cells can be treated with test compounds prior to, simultaneously with, or subsequent to the stimulation by C5a. RAW 264.7 cells respond to the complement component fragment C5a through activation of the C5a receptor, and the C5a receptor activates macrophages and induces cell migration.

RAJI p110 δ = RAJI p110 δ (Homo sapiens, UniProt O00329); experiment: RAJI p110 δ cellular assay (phospho-AKT);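 note: potency based on lowered phosphorylated AKT in RAJI cells, as a readout of PI3K-δ dependent B-cell receptor signaling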
Chain of RAJI p110 δ (O00329 whole entry): as the sequence (O00329 whole entry) above
Chain of RAJI p110 δ (P27986 whole entry partner): as the sequence (P27986 whole entry partner) above
Excerpt: (a) PI3K-δ Selective Assay
Reduction of phospho-AKT is indicative of compounds that may inhibit B-cell proliferation and function in certain diseases.

T1 sequence (P42336 whole entry): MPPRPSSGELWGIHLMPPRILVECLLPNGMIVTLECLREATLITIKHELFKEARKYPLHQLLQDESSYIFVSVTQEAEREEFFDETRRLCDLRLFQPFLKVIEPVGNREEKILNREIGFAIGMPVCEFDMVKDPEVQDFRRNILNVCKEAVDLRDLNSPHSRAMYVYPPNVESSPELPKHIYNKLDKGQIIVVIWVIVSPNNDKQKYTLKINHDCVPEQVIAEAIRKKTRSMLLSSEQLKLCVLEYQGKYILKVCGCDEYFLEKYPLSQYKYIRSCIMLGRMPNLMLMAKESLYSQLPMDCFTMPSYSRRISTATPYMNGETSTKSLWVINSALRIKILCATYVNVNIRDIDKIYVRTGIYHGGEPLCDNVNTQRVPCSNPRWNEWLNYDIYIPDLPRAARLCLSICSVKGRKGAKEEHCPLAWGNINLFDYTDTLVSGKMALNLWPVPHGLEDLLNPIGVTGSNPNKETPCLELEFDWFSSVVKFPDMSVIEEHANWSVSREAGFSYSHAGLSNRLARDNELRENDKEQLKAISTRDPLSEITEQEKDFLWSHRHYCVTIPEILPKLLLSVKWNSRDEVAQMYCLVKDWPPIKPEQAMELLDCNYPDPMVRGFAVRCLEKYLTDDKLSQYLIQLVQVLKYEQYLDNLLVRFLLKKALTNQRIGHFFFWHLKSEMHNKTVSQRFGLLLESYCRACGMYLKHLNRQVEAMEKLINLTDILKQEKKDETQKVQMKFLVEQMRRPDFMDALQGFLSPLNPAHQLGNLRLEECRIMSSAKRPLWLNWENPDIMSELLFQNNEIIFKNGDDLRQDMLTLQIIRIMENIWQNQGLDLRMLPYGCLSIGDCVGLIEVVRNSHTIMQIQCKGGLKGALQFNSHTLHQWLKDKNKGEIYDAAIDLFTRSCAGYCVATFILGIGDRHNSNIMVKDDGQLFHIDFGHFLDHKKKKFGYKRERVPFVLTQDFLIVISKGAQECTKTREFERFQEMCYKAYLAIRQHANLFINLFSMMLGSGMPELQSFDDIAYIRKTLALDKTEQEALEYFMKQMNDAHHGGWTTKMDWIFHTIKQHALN
T1 sequence (P27986 whole entry partner): as the sequence (P27986 whole entry partner) above

Row | SMILES | IC50 (PI3K α) [nM] | IC50 (PI3K β) [nM] | IC50 (PI3K δ) [nM] | IC50 (PI3K γ) [nM] | IC50 (Raw264.7 p110 γ) [nM] | IC50 (RAJI p110 δ) [nM]
1 | C[C@H](NC(=O)c1nc(-c2cccc(NS(C)(=O)=O)c2)c(N)nc1N)c1cc2cccc(Cl)c2c(=O)n1-c1ccccc1 [Compound 169] | < 100 | < 100 | 100 to 1000 | < 100 | < 100 | < 100
2 | C[C@H](NC(=O)c1nc(-c2cn[nH]c2)cnc1N)c1cc2cccc(Cl)c2c(=O)n1-c1ccccc1 [Compound 110] | 1000 to 10000 | 1000 to 10000 | 1000 to 10000 | 100 to 1000 | < 100 | < 100
3 | CC(=O)Nc1cccc(-c2cccc3cc([C@H](C)NC(=O)c4c(N)nn5cccnc45)n(-c4ccccc4)c(=O)c23)c1 [Compound 202] | 1000 to 10000 | > 10000 | 1000 to 10000 | 100 to 1000 | 100 to 1000 | < 100
4 | C[C@H](NC(=O)c1nc(-c2cccc(S(=O)(=O)N(C)C)c2)cnc1N)c1cc2cccc(Cl)c2c(=O)n1-c1ccccc1 [Compound 91] | > 10000 | 1000 to 10000 | 1000 to 10000 | 1000 to 10000 | 100 to 1000 | 100 to 1000
5 | C[C@H](NC(=O)c1nc(-c2cscn2)cnc1N)c1cc2cccc(Cl)c2c(=O)n1-c1ccccc1 [Compound 112] | 1000 to 10000 | 1000 to 10000 | > 10000 | 100 to 1000 | < 100 | 100 to 1000
6 | C[C@H](NC(=O)c1c(N)nn2cccnc12)c1cc2cccc(C#CCNC(=O)C3CCC(=O)C3)c2c(=O)n1-c1ccccc1 (stereo partly drawn) [Compound 162] | 100 to 1000 | 1000 to 10000 | 1000 to 10000 | < 100 | < 100 | < 100
7 | CC(C)Oc1cc(-c2cccc3cc([C@H](C)NC(=O)c4c(N)nn5cccnc45)n(-c4ccccc4)c(=O)c23)ccn1 [Compound 138] | > 10000 | 1000 to 10000 | 1000 to 10000 | 100 to 1000 | < 100 | < 100
8 | C[C@H](NC(=O)c1c(N)nn2cccnc12)c1cc2cccc(C#CCNC(=O)c3ccc(C#N)o3)c2c(=O)n1-c1ccccc1 [Compound 164] | 100 to 1000 | 1000 to 10000 | 1000 to 10000 | 100 to 1000 | < 100 | < 100
9 | C[C@H](NC(=O)c1nc(-c2cccc(S(=O)(=O)N3CCCC3)c2)cnc1N)c1cc2cccc(Cl)c2c(=O)n1-c1ccccc1 [Compound 92] | > 10000 | 1000 to 10000 | 1000 to 10000 | 1000 to 10000 | 1000 to 10000 | 1000 to 10000
10 | C[C@H](NC(=O)c1nccnc1N)c1cc2cccc(-c3cnn(C)c3)c2c(=O)n1-c1ccccc1 [Compound 54, (S)-3-amino-N-(1-(8-(1-methyl-1H-pyrazol-4-yl)-1-oxo-2-phenyl-1,2-dihydroisoquinolin-3-yl)ethyl)pyrazine-2-carboxamide] | > 10000 | > 10000 | 1000 to 10000 | 100 to 1000 | 100 to 1000 | < 100
11 | C[C@H](NC(=O)c1c(N)nn2cccnc12)c1cc2cccc(-c3cncc(NS(C)(=O)=O)c3)c2c(=O)n1-c1ccccc1 [Compound 120] | 1000 to 10000 | > 10000 | 100 to 1000 | 100 to 1000 | 100 to 1000 | < 100
12 | COc1cc(-c2cccc3cc([C@H](C)NC(=O)c4c(N)ncc5cccnc45)n(-c4ccccc4)c(=O)c23)ccn1 [Compound 140] | 1000 to 10000 | > 10000 | 100 to 1000 | < 100 | < 100 | < 100
13 | C[C@H](NC(=O)c1nc(-c2csc(S(C)(=O)=O)n2)cnc1N)c1cc2cccc(Cl)c2c(=O)n1-c1ccccc1 [Compound 113] | > 10000 | 1000 to 10000 | > 10000 | 1000 to 10000 | 100 to 1000 | 1000 to 10000

Continued, values first:

Row | IC50 (PI3K α) [nM] | IC50 (PI3K β) [nM] | IC50 (PI3K δ) [nM] | IC50 (PI3K γ) [nM] | IC50 (Raw264.7 p110 γ) [nM] | IC50 (RAJI p110 δ) [nM] | SMILES
14 | 1000 to 10000 | > 10000 | 1000 to 10000 | 100 to 1000 | < 100 | 100 to 1000 | C[C@H](NC(=O)c1c(N)nn2cccnc12)c1cc2cccc(-c3ccn[nH]3)c2c(=O)n1-c1ccccc1 [Compound 221]
15 | 1000 to 10000 | 1000 to 10000 | 1000 to 10000 | 100 to 1000 | < 100 | < 100 | Cc1cccc2cc([C@H](C)NC(=O)c3c(N)nn4cccnc34)n(-c3ccccc3)c(=O)c12 [Compound 123]
16 | > 10000 | > 10000 | > 10000 | 1000 to 10000 | 100 to 1000 | 1000 to 10000 | C[C@H](NC(=O)c1c(N)nn2cccnc12)c1cc2cccc(N3CCOCC3)c2c(=O)n1-c1ccccc1 [Compound 184]
17 | 1000 to 10000 | 100 to 1000 | 1000 to 10000 | < 100 | < 100 | < 100 | C[C@H](NC(=O)c1c(N)nn2cccnc12)c1cc2cccc(Cl)c2c(=O)n1-c1ccc(F)cc1 [Compound 72]
18 | > 10000 | > 10000 | > 10000 | 1000 to 10000 | 100 to 1000 | 100 to 1000 | C[C@H](NC(=O)c1c(N)nn2cccnc12)c1cc2cccc(NCC(F)(F)F)c2c(=O)n1-c1ccccc1 [Compound 267]
19 | > 10000 | 1000 to 10000 | 1000 to 10000 | 100 to 1000 | < 100 | < 100 | C[C@H](NC(=O)c1c(N)nn2cccnc12)c1cc2cccc(C#N)c2c(=O)n1-c1ccccc1 [Compound 227]
20 | 1000 to 10000 | 100 to 1000 | < 100 | 100 to 1000 | < 100 | < 100 | C[C@H](NC(=O)c1nccnc1N)c1cc2cccc(Cl)c2c(=O)n1-c1ccccc1 [Compound 4, (S)-3-amino-N-(1-(8-chloro-1-oxo-2-phenyl-1,2-dihydroisoquinolin-3-yl)ethyl)pyrazine-2-carboxamide]
21 | 1000 to 10000 | 1000 to 10000 | 1000 to 10000 | < 100 | < 100 | < 100 | CC(=O)NCC#Cc1cccc2cc([C@H](C)NC(=O)c3c(N)nn4cccnc34)n(-c3ccccc3)c(=O)c12 [Compound 165]
22 | 1000 to 10000 | 1000 to 10000 | 1000 to 10000 | 100 to 1000 | 100 to 1000 | 100 to 1000 | C[C@H](NC(=O)c1cnn2cccnc12)c1cc2cccc(Cl)c2c(=O)n1-c1ccc(F)cc1 [Compound 62]
23 | > 10000 | 1000 to 10000 | 1000 to 10000 | 100 to 1000 | < 100 | 100 to 1000 | C[C@H](NC(=O)c1c(N)nn2cccnc12)c1cc2ccccc2c(=O)n1-c1ccccc1 [Compound 133]
24 | 1000 to 10000 | 1000 to 10000 | 1000 to 10000 | 1000 to 10000 | < 100 | 100 to 1000 | COc1cc(-c2cccc3cc([C@H](C)NC(=O)c4c(N)nn5cccnc45)n(C4CC4)c(=O)c23)ccn1 [Compound 150]
25 | 1000 to 10000 | < 100 | 100 to 1000 | 100 to 1000 | < 100 | < 100 | C[C@H](NC(=O)c1c(N)nn2cccnc12)c1cc2cccc(Cl)c2c(=O)n1C [Compound 74]
26 | 1000 to 10000 | > 10000 | 1000 to 10000 | 100 to 1000 | < 100 | < 100 | C[C@H](NC(=O)c1c(N)nn2cccnc12)c1cc2cccc(-c3cncs3)c2c(=O)n1-c1ccccc1 [Compound 245]
27 | 1000 to 10000 | 1000 to 10000 | 1000 to 10000 | 100 to 1000 | < 100 | 100 to 1000 | C[C@H](NC(=O)c1c(N)nn2cccnc12)c1cc2cccc(-c3cccs3)c2c(=O)n1-c1ccccc1 [Compound 271]
28 | 1000 to 10000 | 100 to 1000 | 100 to 1000 | < 100 | < 100 | < 100 | C[C@H](NC(=O)c1c(N)nn2cccnc12)c1cc2scc(Cl)c2c(=O)n1-c1ccccc1 [Compound 212]
29 | > 10000 | 1000 to 10000 | 1000 to 10000 | 1000 to 10000 | < 100 | < 100 | CC(NC(=O)c1c(N)nn2cccnc12)c1cc2cccc(Cl)c2nc1-c1ccccc1 (stereo not drawn) [Compound 218]
30 | > 10000 | 1000 to 10000 | 1000 to 10000 | 1000 to 10000 | < 100 | 100 to 1000 | CC(C)c1ccn2nc(N)c(C(=O)N[C@@H](C)c3cc4cccc(Cl)c4c(=O)n3-c3ccccc3)c2n1 [Compound 178]
31 | 1000 to 10000 | > 10000 | 1000 to 10000 | 100 to 1000 | < 100 | 100 to 1000 | C[C@H](NC(=O)c1c(N)nn2cccnc12)c1cc2cccc(-c3ccccc3)c2c(=O)n1-c1ccccc1 [Compound 115]
